Experimental data as given in publication PMC8774648, “Effects of Baicalein and Chrysin on the Structure and Functional Properties of β-Lactoglobulin” (Foods, 2022).
Where “and” joins values, the source holds several entries; their conditions need not be identical. Equal entries are not always repeated. Marks after values point to notes of the source that are not given here.

Legend:
β-lactoglobulin (BLG) [1] = biological target: T1, β-lactoglobulin (BLG) (Bos taurus, UniProt P02754); test: CD spectra, secondary structure contents of BLG
T1 construct: purchased Sigma–Aldrich Co. (St. Louis, MO, USA)
T1 sequence (P02754 17-178): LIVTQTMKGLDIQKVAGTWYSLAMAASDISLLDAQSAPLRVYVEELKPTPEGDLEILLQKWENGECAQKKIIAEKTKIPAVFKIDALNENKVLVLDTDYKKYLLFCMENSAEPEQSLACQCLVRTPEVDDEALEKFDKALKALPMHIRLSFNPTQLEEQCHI
Experimental: The CD spectra in the range of 200–250 nm were obtained from a CD spectrometer (MOS 450, Bio–Logic, Claix, France) equipped with 1.0 mm path length cuvette under the constant nitrogen flush. The solutions were prepared with molar ratios of Bai or Chr to BLG of 0:1, 1:1, and 2:1, respectively. The contents of secondary structure of BLG were determined based on our previously reported study.

β-lactoglobulin (BLG) [2] = biological target: T1, β-lactoglobulin (BLG); test: Three-dimensional fluorescence spectra of BLG with Bai/Chr; conditions: c(BLG) = 20.0 µM, c(Bai/Chr) = 20.0 μM
Experimental: (§1) Intrinsic fluorescence spectroscopic test was measured on a F–7000 spectrophotometer (Hitachi, Japan) equipped with temperature controller according to the method described in the previous study. Briefly, 3 mL solution of BLG (20.0 µM) was titrated by continuously adding different amounts of Bai or Chr (0–20.0 µM). The fluorescence spectra were recorded at different temperatures (298 K, 304 K, and 310 K) with the excitation wavelength of 280 nm and the excitation and emission slit set at 2.5 nm. Moreover, synchronous fluorescence spectra were conducted by setting the wavelength intervals (λem–λex) at 15 nm and 60 nm, respectively. The 3D fluorescence spectra (molar ratios of BLG to Bai/Chr were 1:0 and 1:1) were recorded at excitation and emission wavelength range of 200−600 nm. All the fluorescence values were corrected to eliminate the internal filtering effect according to the previous method, and were used to evaluate the quenching mechanism of Bai/Chr binding to BLG by using the following equation [21]:(1) F0/F=1+Kqτ0[Q]=1+KSV[Q] where F and F0 are the fluorescence intensities of fluorophore with and without quencher; Ksv denotes the Stern–Volmer quenching constant; Kq is the quenching rate constant (Kq = Ksv/τ0), and τ0 is the average lifetime of the biomolecule in the absence of a quencher (τ0 = 10^−8 s); [Q] represents the experimental concentration of Bai/Chr.

β-lactoglobulin (BLG) [3] = biological target: T1, β-lactoglobulin (BLG); test: Foaming ability and foaming stability of BLG
Experimental: Foaming ability (FA) and foaming stability (FS) were measured as described by Wang et al. with some modifications. A certain amount of BLG solution (1.0 mg mL^−1) was added to a 100 mL cylinder, and Bai or Chr was added to form solutions with different ratios of BLG to Bai or Chr (40:1, 30:1, 20:1, 10:1). The initial height H0 of the foam was recorded. The foam was then sheared at 10,000 rpm in a high-speed dispersion machine for 1 min and the height of the foam was recorded as H1. The height of the foam was recorded as H2 30 min later. The FA (%) and FS (%) were calculated according to the following equations:(9) FA (%)=H1−H0/H0×100 (10) FS (%)=H2−H0/H1−H0×100

β-lactoglobulin (BLG) [4] = biological target: T1, β-lactoglobulin (BLG); test: Emulsifying ability and emulsifying stability of BLG
Experimental: Emulsifying ability (EA) and emulsifying stability (ES) were investigated by the method of Xiong et al. with slight modification. BLG solution (1 mg mL^−1) was added to Bai/Chr to form the solutions with different ratios of BLG to Bai/Chr (40:1, 30:1, 20:1, 10:1), and then soybean oil was added to form BLG solution containing 10% (v/v) oil. The emulsion was fully dispersed for 2 min at a rate of 7000 r min^−1 and repeated for three times. At 0 and 10 min, 30 µL of emulsion was extracted from the bottom of the sample and immediately added to 3 mL of 0.1% SDS solution. The absorbance of the sample was measured at 500 nm and recorded as A0 and A10, respectively. The EA (m^2 g^−1) and ES (min) were calculated according to the following equations:(11) EA (m^2 g^−1)=2×2.303/c×Φ×L×10^4×A0×D (12) ES (min)=A0/A0−A10×10 where c is the weight of the BLG per unit volume (g mL^−1), Φ is the volume fraction of the oil phase, L is the length of light path, and D is the dilution factor, D = 100.

β-lactoglobulin (BLG) [5] = biological target: T1, β-lactoglobulin (BLG); test: Protein surface hydrophobicity (PSH) of BLG with ANS probe
Experimental: PSH of BLG in the presence or absence of Bai or Chr was determined using ANS as a fluorescent probe. In the BLG solution (20.0 µM) alone or Bai/Chr–BLG mixture the ANS solution (5 mM) was continuously added until the fluorescence intensity of the mixture remained constant. The fluorescence intensity of the sample was recorded in the wavelength range of 400–600 nm upon 380 nm excitation. The PSH values were calculated by the following equations [26]:(5) [ANS]bound=F/B (6) [ANS]free=[ANS]total−[ANS]bound (7) F/[ANS]free=−F/Kdapp−Fmax/Kdapp (8) PSH=Fmax/[BLG]Kdapp where [ANS]free and [ANS]bound are the concentration of free and bound ANS, respectively. Kdapp is the apparent dissociation constant of ANS, Fmax is the maximum fluorescence intensity at saturating ANS concentration and B is the proportionality coefficient.

β-lactoglobulin (BLG) [6] = biological target: T1, β-lactoglobulin (BLG); test: Intrinsic fluorescence quenching of BLG by Bai/Chr (Stern–Volmer and double logarithmic equations); assay type: binding; conditions: for Kd: Ka (binding constant); for Kd / Ksv (Stern–Volmer quenching constant): pH 6.8
Experimental: as §1
For static fluorescence quenching mechanism, the binding constant (Ka) and the number of binding sites (n) could be determined by the following equation [22]:(2) logF0−F/F=nlogKa−nlog1/[Qt]−(F0−F)[Pt]/F0 where [Qt] and [Pt] are the concentrations of Bai/Chr and BLG, respectively.

β-lactoglobulin (BLG) [7] = biological target: T1, β-lactoglobulin (BLG); test: Thermodynamic parameters of Bai/Chr–BLG binding (Van't Hoff equation)
Experimental: In order to determine the primary forces between BLG and Bai/Chr, thermodynamic parameters were calculated using the following equations [23]:(3) logKa=−ΔH°/2.303RT+ΔS°/2.303R (4) ΔG°=ΔH°−TΔS° where R and T represent gas constant (8.314 J mol^−1 K^−1) and temperature (298, 304, and 310 K), respectively. Enthalpy change (ΔH°) and entropy change (ΔS°) of interaction between ligands and biomolecules are the main criteria for evaluating acting force, and free energy (ΔG°) is the main criteria for estimating the spontaneity of interaction.

β-lactoglobulin (BLG) [8] = biological target: T1, β-lactoglobulin (BLG); test: Free sulfhydryl (SH) content of BLG (DTNB); conditions: Bai/Chr 0 to 20.0 µM, BLG 20.0 µM
Experimental: The content of free SH was determined by spectrophotometry according to the report by Takić et al. with minor modifications. Briefly, Bai/Chr concentrations were varied from 0 to 20.0 µM, and BLG was kept at 20.0 µM. Then the two solutions were incubated with 10.0 mM DTNB in 50 mM PBS (pH 6.8) for 30 min at room temperature. The absorbance of the sample at 412 nm was recorded and the molar extinction coefficient (14,360 M^−1 cm^−1) was obtained from the standard curve of L-cysteine, which was used to calculate the number of total sulfhydryl groups per gram of protein.

[9] = molar ratio of Bai/Chr to BLG 1:1
[10] = molar ratio of Bai/Chr to BLG 2:1
[11] = molar ratio of Bai/Chr to BLG 2:1, listed as Chr–BLG

Compound: O=c1cc(-c2ccccc2)oc2cc(O)cc(O)c12 [Chr, chrysin]
- Random Coil content of BLG (β-lactoglobulin (BLG) [1]; [9]): 25.96 ± 0.34 ^bc %
- α-Helix content of BLG (β-lactoglobulin (BLG) [1]; [9]): 14.30 ± 0.47 ^c %
- β-Sheet content of BLG (β-lactoglobulin (BLG) [1]; [9]): 35.18 ± 0.12 ^c %
- β-Turn content of BLG (β-lactoglobulin (BLG) [1]; [9]): 24.56 ± 0.48 ^a %
- Random Coil content of BLG (β-lactoglobulin (BLG) [1]; [10]): 31.16 ± 0.10 ^a %
- β-Turn content of BLG (β-lactoglobulin (BLG) [1]; [10]): 24.53 ± 0.93 ^a %
- α-Helix content of BLG (β-lactoglobulin (BLG) [1]; [11]): 11.25% and 11.25 ± 0.58 ^d %
- β-Sheet content of BLG (β-lactoglobulin (BLG) [1]; [11]): 33.06% and 33.06 ± 0.30 ^e %
- fluorescence intensity of Peak 2 (3D fluorescence) (β-lactoglobulin (BLG) [2]; free BLG 430.6): 205.3
- fluorescence intensity of Peak 1 (3D fluorescence) (β-lactoglobulin (BLG) [2]; free BLG 522.1): 378.5
- increase of foaming stability (FS) of BLG (β-lactoglobulin (BLG) [3]; compared with BLG alone, molar ratio of BLG to Bai/Chr 10:1): 85.57%
- increase of foaming ability (FA) of BLG (β-lactoglobulin (BLG) [3]; compared with FA of free BLG (25.2%), molar ratios of BLG to Bai/Chr changed from 40:1 to 10:1): 51.32%
- effect on emulsifying stability (ES) of BLG (β-lactoglobulin (BLG) [4]; BLG to Bai/Chr 40:1 to 10:1): did the opposite
- effect on emulsifying ability (EA) of BLG (β-lactoglobulin (BLG) [4]; with the increase of Bai or Chr concentration (BLG to Bai/Chr 40:1 to 10:1)): slightly improved
- F max (maximum fluorescence intensity at saturating ANS) (β-lactoglobulin (BLG) [5]; molar ratio 1:1): 151.76 ± 3.04 ^b
- PSH (protein surface hydrophobicity) (β-lactoglobulin (BLG) [5]; molar ratio 1:1): 252.82 ± 5.07 ^c
- Kdapp (apparent dissociation constant of ANS) (β-lactoglobulin (BLG) [5]; molar ratio 1:1, c(BLG) = 20.0 µM): 5.67 ± 0.31 µM
- Reduction Rate of PSH (β-lactoglobulin (BLG) [5]; molar ratio 1:1, versus BLG alone): 23.25 ± 0.47 ^b %
- F max (maximum fluorescence intensity at saturating ANS) (β-lactoglobulin (BLG) [5]; molar ratio 2:1): 110.17 ± 2.20 ^d
- PSH (protein surface hydrophobicity) (β-lactoglobulin (BLG) [5]; molar ratio 2:1): 193.69 ± 3.87 ^e
- Kdapp (apparent dissociation constant of ANS) (β-lactoglobulin (BLG) [5]; molar ratio 2:1, c(BLG) = 20.0 µM): 5.7 ± 0.1 µM
- Reduction Rate of PSH (β-lactoglobulin (BLG) [5]; molar ratio 2:1, versus BLG alone): 41.20 ± 0.82 ^a %
- Ka (binding constant) (β-lactoglobulin (BLG) [6]; 298 K): 214000 L/mol
- Kd (β-lactoglobulin (BLG) [6]; T = 298 K): 4.67 µM
- Kd (β-lactoglobulin (BLG) [6]; T = 304 K): 4.81 µM
- Kd (β-lactoglobulin (BLG) [6]; T = 310 K): 5.13 µM
- n (number of binding sites) (β-lactoglobulin (BLG) [6]; T = 298 K): 1.45 ± 0.01
- Ksv (Stern–Volmer quenching constant) (β-lactoglobulin (BLG) [6]; T = 298 K): 3.10 ± 0.04 ^d ×10^4 L mol^−1
- n (number of binding sites) (β-lactoglobulin (BLG) [6]; T = 304 K): 1.01 ± 0.02
- Ksv (Stern–Volmer quenching constant) (β-lactoglobulin (BLG) [6]; T = 304 K): 2.94 ± 0.06 ^e ×10^4 L mol^−1
- n (number of binding sites) (β-lactoglobulin (BLG) [6]; T = 310 K): 1.29 ± 0.01
- Ksv (Stern–Volmer quenching constant) (β-lactoglobulin (BLG) [6]; T = 310 K): 2.59 ± 0.04 ^f ×10^4 L mol^−1
- BLG fluorescence quenching (β-lactoglobulin (BLG) [6]; after 10 times titration, 298 K, c(BLG) = 20 µM): 59.0%
- n (number of binding sites) (β-lactoglobulin (BLG) [6]; general statement for the three temperatures): approximately 1
- ΔG° (free energy) (β-lactoglobulin (BLG) [7]; T = 298 K): -7.268 kcal/mol
- ΔG° (free energy) (β-lactoglobulin (BLG) [7]; T = 304 K): -7.443 kcal/mol
- ΔG° (free energy) (β-lactoglobulin (BLG) [7]; T = 310 K): -7.62 kcal/mol
- ΔH° (enthalpy change) (β-lactoglobulin (BLG) [7]; from Ka at 298, 304 and 310 K): 1.48 kcal/mol
- ΔS° (entropy change) (β-lactoglobulin (BLG) [7]; from Ka at 298, 304 and 310 K): 122.18 J mol^−1 K^−1
- effect on contents of free SH group of BLG (β-lactoglobulin (BLG) [8]): gradually weakened
